# Several values for one entry are separate records, joined by “and”; a condition that tells them apart may be missing. Equal entries are not always repeated. Toxic doses and inconclusive results are not listed. Peptide text beside a SMILES is read from it. * marks the point of attachment. Cbz = O=C(OCc1ccccc1)*; Bn = c1ccc(C*)cc1
# Tested on: P388 leukemia ip, CD2F1 mice, survival T/C
# Test: NCI In Vivo Anticancer Drug Screen. Data for tumor model P388 Leukemia (intraperitoneal) in CD2F1 (CDF1) mice
# Settings: endpoint: median survival time, higher = longer survival
# Method in brief: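 Mice carrying the transplanted tumor received test compound or vehicle. Survival was recorded in each group, and the value is the treated-group measurement divided by that of the vehicle-treated control group.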
# [1] = dose: 50.0 mg/kg/injection, schedule: Q01DX005 (ip), vehicle: Klucel (hydroxypropylcellulose) (HPC)
# [2] = dose: 100.0 mg/kg/injection, schedule: Q01DX005 (ip), vehicle: Klucel (hydroxypropylcellulose) (HPC)
# [3] = dose: 50.0 mg/kg/injection, schedule: Q01DX009 (ip), vehicle: saline with Tween-80
# [4] = dose: 50.0 mg/kg/injection, schedule: Q01DX005 (ip), vehicle: saline with Tween-80
# [5] = dose: 60.0 mg/kg/injection, schedule: Q01DX005 (ip), vehicle: saline with Tween-80
# [6] = dose: 50.0 mg/kg/injection, schedule: Q01DX009 (ip), vehicle: saline
# [7] = dose: 100.0 mg/kg/injection, schedule: Q01DX009 (ip), vehicle: saline
# [8] = dose: 120.0 mg/kg/injection, schedule: Q01DX005 (ip), vehicle: saline with Tween-80
# [9] = dose: 240.0 mg/kg/injection, schedule: Q01DX005 (ip), vehicle: saline with Tween-80
smiles,measurement,setting,value
CCN(CC)C1C2=C(CCCC2)OS(=O)(=O)C1c1ccccc1 (stereo not drawn),T/C,"dose: 60.0 mg/kg/injection, schedule: Q01DX005 (ip), vehicle: Klucel (hydroxypropylcellulose) (HPC)",103 % of control
same,T/C,"dose: 120.0 mg/kg/injection, schedule: Q01DX005 (ip), vehicle: Klucel (hydroxypropylcellulose) (HPC)",97 % of control
same,T/C,"dose: 240.0 mg/kg/injection, schedule: Q01DX005 (ip), vehicle: Klucel (hydroxypropylcellulose) (HPC)",95 % of control
CC(C)C(NC(=O)C(CSCc1ccccc1)NC(=O)OCc1ccccc1)C(=O)O (stereo not drawn) (Cbz-Cys(Bn)-Val-OH; configuration not given here),T/C,[1],97 % of control
same,T/C,[2],88 % of control
O=c1nc2[nH]c3c4cccc5cccc(c3nc2c(=O)[nH]1)c54,T/C,"dose: 12.5 mg/kg/injection, schedule: Q01DX005 (ip), vehicle: Klucel (hydroxypropylcellulose) (HPC)",101 % of control and 108 % of control
same,T/C,"dose: 25.0 mg/kg/injection, schedule: Q01DX005 (ip), vehicle: Klucel (hydroxypropylcellulose) (HPC)",101 % of control and 98 % of control
same,T/C,[1],106 % of control and 110 % of control (2×)
same,T/C,[2],108 % of control and 113 % of control and 124 % of control
O=C(CCN1CCCCC1)c1ccccc1,T/C,"dose: 5.0 mg/kg/injection, schedule: Q01DX009 (ip), vehicle: saline",100 % of control
same,T/C,"dose: 10.0 mg/kg/injection, schedule: Q01DX009 (ip), vehicle: saline",113 % of control
same,T/C,"dose: 20.0 mg/kg/injection, schedule: Q01DX009 (ip), vehicle: saline",109 % of control
same,T/C,[3],97 % of control
O=C1C=CC(=Nc2ccc(N(CCCl)CCCl)cc2)c2ccccc21,T/C,"dose: 50.0 mg/kg/injection, schedule: Q01DX009 (ip), vehicle: Klucel (hydroxypropylcellulose) (HPC)",171 % of control
same,T/C,"dose: 100.0 mg/kg/injection, schedule: Q01DX009 (ip), vehicle: Klucel (hydroxypropylcellulose) (HPC)",156 % of control and 181 % of control
COc1cccc(Oc2ccc(C)c[n+]2CC(C)=O)c1,T/C,"dose: 25.0 mg/kg/injection, schedule: Q01DX005 (ip), vehicle: saline with Tween-80",100 % of control
same,T/C,[4],105 % of control
COC(=O)NN(C(=O)OC)C12CCCC1N(C(=O)OC)N(C(=O)OC)c1c2ccc2cc(OC)ccc12 (stereo not drawn),T/C,"dose: 100.0 mg/kg/injection, schedule: Q04DX002 (ip), vehicle: Klucel (hydroxypropylcellulose) (HPC)",99 % of control
same,T/C,"dose: 200.0 mg/kg/injection, schedule: Q04DX002 (ip), vehicle: Klucel (hydroxypropylcellulose) (HPC)",92 % of control
same,T/C,"dose: 400.0 mg/kg/injection, schedule: Q04DX002 (ip), vehicle: Klucel (hydroxypropylcellulose) (HPC)",90 % of control
CN1C(=O)n2c(nc3ccccc32)C(N=[N+]=[N-])(N=[N+]=[N-])C1=O (stereo not drawn),T/C,"dose: 15.0 mg/kg/injection, schedule: Q01DX005 (ip), vehicle: saline with Tween-80",108 % of control
same,T/C,"dose: 30.0 mg/kg/injection, schedule: Q01DX005 (ip), vehicle: saline with Tween-80",101 % of control
same,T/C,[5],101 % of control and 110 % of control
CC(C)C(=NC(C)(C)C)Nc1ccccc1Cl,T/C,[3],100 % of control
same,T/C,"dose: 100.0 mg/kg/injection, schedule: Q01DX009 (ip), vehicle: saline with Tween-80",92 % of control
same,T/C,"dose: 200.0 mg/kg/injection, schedule: Q01DX009 (ip), vehicle: saline with Tween-80",95 % of control
C[N+](C)(C)CC(=O)O,T/C,"dose: 10.0 mg/kg/injection, schedule: Q01DX005 (ip), vehicle: saline",104 % of control
same,T/C,"dose: 20.0 mg/kg/injection, schedule: Q01DX005 (ip), vehicle: saline",99 % of control
same,T/C,"dose: 31.25 mg/kg/injection, schedule: Q01DX005 (ip), vehicle: saline",100 % of control
same,T/C,"dose: 40.0 mg/kg/injection, schedule: Q01DX005 (ip), vehicle: saline",98 % of control
same,T/C,"dose: 62.5 mg/kg/injection, schedule: Q01DX005 (ip), vehicle: saline",105 % of control
same,T/C,"dose: 125.0 mg/kg/injection, schedule: Q01DX005 (ip), vehicle: saline",91 % of control
same,T/C,"dose: 250.0 mg/kg/injection, schedule: Q01DX005 (ip), vehicle: saline",87 % of control
O=C1C(=Cc2ccccc2O)C(=O)N(c2ccccc2)C(=S)N1c1ccccc1,T/C,[1],100 % of control
same,T/C,[2],100 % of control
same,T/C,"dose: 200.0 mg/kg/injection, schedule: Q01DX005 (ip), vehicle: Klucel (hydroxypropylcellulose) (HPC)",100 % of control
CN(C)CCC(=O)c1ccccc1,T/C,[6],104 % of control
same,T/C,[7],110 % of control
COc1cccc2c1C(=O)c1c(O)c3c(c(O)c1C2=O)C[C@@](O)(/C(C)=N\NC(=O)CCC(N)C(=O)O)C[C@@H]3OC1CC(N)C(O)C(C)O1 (stereo partly drawn) (tested in a mixture with another compound),T/C,"dose: 18.75 mg/kg/injection, schedule: Q04DX003 (ip), vehicle: water",121 % of control
same,T/C,"dose: 75.0 mg/kg/injection, schedule: Q04DX003 (ip), vehicle: water",121 % of control
same,T/C,"dose: 300.0 mg/kg/injection, schedule: Q04DX003 (ip), vehicle: water",163 % of control
CCOC(=O)C(Cc1ccc(O)cc1)NC(=O)C1Cc2c([nH]c3ccccc23)C=N1 (stereo not drawn),T/C,[5],100 % of control
same,T/C,[8],102 % of control
same,T/C,[9],106 % of control
S=S1CC2(CSSC2)C1.[Cl][Hg][Cl],T/C,"dose: 7.5 mg/kg/injection, schedule: Q01DX009 (ip), vehicle: saline",111 % of control
same,T/C,"dose: 15.0 mg/kg/injection, schedule: Q01DX009 (ip), vehicle: saline",117 % of control
C[n+]1c(-c2cccc(OCCOCCOc3cccc(-c4c5cc(N)ccc5c5ccc(N)cc5[n+]4C)c3)c2)c2cc(N)ccc2c2ccc(N)cc21,T/C,"dose: 0.19 mg/kg/injection, schedule: Q01DX009 (ip), vehicle: water",114 % of control
same,T/C,"dose: 0.39 mg/kg/injection, schedule: Q01DX009 (ip), vehicle: water",114 % of control
same,T/C,"dose: 1.56 mg/kg/injection, schedule: Q01DX009 (ip), vehicle: water",170 % of control
same,T/C,"dose: 3.13 mg/kg/injection, schedule: Q01DX009 (ip), vehicle: water",172 % of control
same,T/C,"dose: 6.25 mg/kg/injection, schedule: Q01DX009 (ip), vehicle: water",102 % of control
CSCCC(NC=O)C(=O)NC(CC(C)C)C(=O)NC(Cc1ccccc1)C(=O)O (stereo not drawn),T/C,"dose: 12.5 mg/kg/injection, schedule: Q01DX005 (ip), vehicle: distilled water + Tween-80",98 % of control
same,T/C,"dose: 25.0 mg/kg/injection, schedule: Q01DX005 (ip), vehicle: distilled water + Tween-80",98 % of control
same,T/C,"dose: 50.0 mg/kg/injection, schedule: Q01DX005 (ip), vehicle: distilled water + Tween-80",100 % of control
same,T/C,"dose: 100.0 mg/kg/injection, schedule: Q01DX005 (ip), vehicle: distilled water + Tween-80",89 % of control
same,T/C,"dose: 200.0 mg/kg/injection, schedule: Q01DX005 (ip), vehicle: distilled water + Tween-80",97 % of control
CCn1c(N)c(C(=S)NC)c(=O)n(CC)c1=O,T/C,[6],100 % of control
same,T/C,[7],96 % of control
O=C(O)c1cc(O)c(O)c(OC(=O)c2cc(O)c(O)c(O)c2CNc2ccc3cc(S(=O)(=O)O)cc(S(=O)(=O)O)c3c2)c1,T/C,[4],110 % of control
same,T/C,"dose: 100.0 mg/kg/injection, schedule: Q01DX005 (ip), vehicle: saline with Tween-80",115 % of control
same,T/C,"dose: 200.0 mg/kg/injection, schedule: Q01DX005 (ip), vehicle: saline with Tween-80",112 % of control
CC1CCC(C(=O)C(Cl)C(Cl)C2CCCCC2)CC1 (stereo not drawn),T/C,[1],92 % of control
same,T/C,[2],92 % of control
O=[N+]([O-])c1oc2ccc3ccccc3c2c1CCO,T/C,[5],97 % of control
same,T/C,[8],110 % of control
same,T/C,[9],117 % of control
NC(=O)C1CCCN1C(=O)C1CCCN(CCCCCCN2CCCC(C(=O)N3CCCC3C(N)=O)C2)C1 (stereo not drawn),T/C,"dose: 60.0 mg/kg/injection, schedule: Q01DX005 (ip), vehicle: saline",105 % of control
same,T/C,"dose: 120.0 mg/kg/injection, schedule: Q01DX005 (ip), vehicle: saline",98 % of control
COc1cccc(/C=N/NC(=O)c2ccccc2N2CCCC2)c1O,T/C,"dose: 12.5 mg/kg/injection, schedule: Q01DX009 (ip), vehicle: olive oil, sesame oil, peanut oil",93 % of control
same,T/C,"dose: 25.0 mg/kg/injection, schedule: Q01DX009 (ip), vehicle: olive oil, sesame oil, peanut oil",97 % of control
same,T/C,"dose: 50.0 mg/kg/injection, schedule: Q01DX009 (ip), vehicle: olive oil, sesame oil, peanut oil",97 % of control
same,T/C,"dose: 100.0 mg/kg/injection, schedule: Q01DX009 (ip), vehicle: olive oil, sesame oil, peanut oil",96 % of control
same,T/C,"dose: 200.0 mg/kg/injection, schedule: Q01DX009 (ip), vehicle: olive oil, sesame oil, peanut oil",94 % of control
